target: T1, human vasopressin V1b receptor (Homo sapiens, UniProt P47901); assay: Vasopressin V1b receptor binding assay; details: membranes from CHO-K1 cells with stably expressed human V1b receptors, 1.5 nM 3H-AVP displacement; with more than one stereogenic center: the diastereomer with stronger affinity
T1 construct: expressed in transfected cells; host or cells: CHO-K1 (cell line hV1b-3H2_CHO), membrane preparation
T1 sequence (P47901 1-424): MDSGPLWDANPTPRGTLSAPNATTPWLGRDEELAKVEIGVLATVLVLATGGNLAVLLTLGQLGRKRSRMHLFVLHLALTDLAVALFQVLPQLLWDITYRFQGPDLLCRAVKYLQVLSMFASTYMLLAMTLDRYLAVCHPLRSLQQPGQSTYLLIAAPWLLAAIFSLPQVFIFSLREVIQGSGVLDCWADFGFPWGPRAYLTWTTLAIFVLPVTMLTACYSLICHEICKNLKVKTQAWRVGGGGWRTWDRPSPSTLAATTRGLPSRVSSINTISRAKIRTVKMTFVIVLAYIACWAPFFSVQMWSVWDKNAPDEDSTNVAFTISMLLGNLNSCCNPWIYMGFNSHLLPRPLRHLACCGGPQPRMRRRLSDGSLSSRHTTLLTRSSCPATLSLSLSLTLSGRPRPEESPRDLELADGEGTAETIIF
Method in brief: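 Membranes bearing human V1b receptor incubated 60 min at room temperature in 50 mM Tris, 10 mM MgCl2, 0.1% BSA, pH 7.4, 2% DMSO, triplicate.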

Row | Ki | Compound
1 | 10 to 50 nM | CCOc1ccc(OC)cc1C1(N2CCN(C3CCN(C)CC3)CC2)C(=O)N(S(=O)(=O)c2ccc(OC)cn2)c2ccc(C#N)cc21 (single isomer, unassigned; (+)) [Example 141, (+)-5-Cyano-3-(2-ethoxy-5-methoxy-phenyl)-1-(5-methoxy-pyridine-2-sulfonyl)-3-[4-(1-methyl-piperidin-4-yl)-piperazin-1-yl]-2,3-dihydro-1H-indol-2-one]
2 | < 10 nM | CCOc1cc(OC)ccc1C1(N2CCC(N3CCNCC3)CC2)C(=O)N(S(=O)(=O)c2ccc(OC)cn2)c2ccc(C#N)cc21 (single isomer, unassigned; (+)) [Example 142, (+)-5-Cyano-3-(2-ethoxy-4-methoxy-phenyl)-1-(5-methoxy-pyridine-2-sulfonyl)-3-(4-piperazin-1-yl-piperidin-1-yl)-2,3-dihydro-1H-indol-2-one]
3 | 10 to 50 nM | CCOc1ccc(OC)cc1C1(N2CCC(N3CCNCC3)CC2)C(=O)N(S(=O)(=O)c2ccc(OC)cn2)c2ccc(C#N)cc21 (single isomer, unassigned; (+)) [Example 156, (+)-5-Cyano-3-(2-ethoxy-5-methoxy-phenyl)-1-(5-methoxy-pyridine-2-sulfonyl)-3-(4-piperazin-1-yl-piperidin-1-yl)-2,3-dihydro-1H-indol-2-one]
4 | 10 to 50 nM | CCOc1ccc(OC)cc1C1(N2CCN(c3ccncc3)CC2)C(=O)N(S(=O)(=O)c2ccc(OC)c3cccnc23)c2ccc(C#N)cc21 (single isomer, unassigned; (+)) [Example 162, (+)-5-Cyano-3-(2-ethoxy-5-methoxy-phenyl)-1-(5-methoxy-quinoline-8-sulfonyl)-3-(4-pyridin-4-yl-piperazin-1-yl)-2,3-dihydro-1H-indol-2-one]
5 | < 10 nM | CCOc1ccc(OC)cc1C1(N2CCN(c3ccncc3)CC2)C(=O)N(S(=O)(=O)c2ccc(OC)cn2)c2ccc(C#N)cc21 (single isomer, unassigned; (+)) [Example 163, (+)-5-Cyano-3-(2-ethoxy-5-methoxy-phenyl)-1-(5-methoxy-pyridine-2-sulfonyl)-3-(4-pyridin-4-yl-piperazin-1-yl)-2,3-dihydro-1H-indol-2-one]
6 | < 10 nM | CCOc1ccc(OC)cc1C1(N2CCN(c3ccnc(C)c3)CC2)C(=O)N(S(=O)(=O)c2ccc(OC)cn2)c2ccc(C#N)cc21 (single isomer, unassigned; (+)) [Example 164, (+)-5-Cyano-3-(2-ethoxy-5-methoxy-phenyl)-1-(5-methoxy-pyridine-2-sulfonyl)-3-[4-(2-methyl-pyridin-4-yl)-piperazin-l-yl]-2,3-dihydro-1H-indol-2-one]
7 | < 10 nM | (±)-5-Cyano-3-(2-ethoxy-5-methoxyphenyl)-3-[4-(2-ethylpyridin-4-yl)piperazin-1-yl]-1-(quinoline-8-sulfonyl)-2,3-dihydro-1H-indol-2-one [Example 58]

More lines, now with the values behind:

Row | Compound | Ki
8 | CCOc1ccc(OC)cc1C1(N2CCN(c3ccnc(C(C)C)c3)CC2)C(=O)N(S(=O)(=O)c2ccc(OC)cn2)c2ccc(C#N)cc21 (single isomer, unassigned; (+)) [Example 143, (+)-5-Cyano-3-(2-ethoxy-5-methoxy-phenyl)-3-[4-(2-isopropyl-pyridin-4-yl)-piperazin-1-yl]-1-(5-methoxy-pyridine-2-sulfonyl)-2,3-dihydro-1H-indol-2-one] | < 10 nM
9 | CCOc1nc(Cl)ccc1C1(N2CCN(c3ccnc(C)c3)CC2)C(=O)N(S(=O)(=O)c2ccc(OC)cn2)c2ccc(C#N)cc21 (single isomer, unassigned; (+)) [Example 151, (+)-5-Cyano-3-(6-chloro-2-ethoxy-pyridin-3-yl)-1-(5-methoxy-pyridine-2-sulfonyl)-3-[4-(2-methyl-pyridin-4-yl)-piperazin-1-yl]-2,3-dihydro-1H-indol-2-one] | < 10 nM
10 | (+)-5-Cyano-3-(2-ethoxy-5-methoxy-phenyl)-1-(5-methoxy-pyridine-2-sulfonyl)-3-[4-(4-methyl-piperazin-1-yl)-piperidin-1-yl]-2,3-dihydro-1H-indol-2-one [Example 158] | < 10 nM
11 | (+)-5-Cyano-3-(6-chloro-2-ethoxy-pyridin-3-yl)-1-(5-methoxy-pyridine-2-sulfonyl)-3-[4-(2-methyl-pyridin-4-yl)-piperazin-1-yl]-2,3-dihydro-1H-indol-2-one [Example 152] | < 10 nM
12 | (±)-5-Cyano-3-(6-chloro-2-ethoxypyridin-3-yl)-1-(2,4-dimethoxybenzenesulfonyl)-3-[4-(2-methylpyridin-4-yl)piperazin-1-yl]-2,3-dihydro-1H-indol-2-one [Example 28] | 10 to 50 nM

Source: patent US8486931B2, “Substituted oxindole compounds” (Abbott GmbH & Co. KG, priority 2007, dated 2013)
